Laboratory results published in PMC6008492, “Structure activity relationship studies on rhodanines and derived enethiol inhibitors of metallo-β-lactamases” (Bioorganic & Medicinal Chemistry, 2018).
Read-outs that look alike come from different tables or passages of the source.

What was measured:
[1] = system: MBLs (SPM-1, IMP-1, BcII, VIM-2, NDM-1); type: biochemical; conditions: for MBL inhibition, result in words: at 100 µM
Description: (§1) Inhibition analyses against bacterial MBLs and SBLs were performed as described previously.[22], [24], [26] Residual enzyme activities were determined for a range of inhibitor concentrations. Non-linear regression fitting of IC50 curves was carried out using a three-parameter dose–response curve in GraphPad Prism. Errors in IC50 values are expressed as: σ(logIC50)/logIC50×IC50
(§2) We first screened the inhibitors against a representative set of presently clinically important and other MBLs[22], comprising both Class B1 enzymes (NDM-1, New Delhi MBL-1; VIM-2, Verona integron–encoded MBL-2; BcII, Bacillus cereus II MBL; SPM-1, São Paulo MBL-1; IMP-1, imipenemase MBL-1) and the Class B2 MBL CphA (carbapenem hydrolysing MBL from Aeromonas hydrophila).[22] The latter MBL (CphA) only utilises one active site Zn(II) ion in catalysis, whilst the others normally use two Zn(II) ions. We also screened the inhibitors against a representative panel of SBLs from different classes (TEM-1, Temoneira β-lactamase-1, class A; CTX-M-15, cefotaxime hydrolysing β-lactamase from Munich 15, class A, extended spectrum β-lactamase (ESBL); AmpC E. coli, class C, and OXA-10, oxacillinase-10, class D).

NDM-1 = target: T1, NDM-1 (Klebsiella pneumoniae, UniProt C7C422); test: NDM-1 inhibition, fluorogenic cephalosporin (FC5) hydrolysis; type: biochemical; conditions: for remaining activity at 100 µM: read-out: % Residual activity versus NDM-1
T1 construct: made in house
Description: as §1
(§3) We first screened the inhibitors against a representative set of presently clinically important and other MBLs[22], comprising both Class B1 enzymes (NDM-1, New Delhi MBL-1; VIM-2, Verona integron–encoded MBL-2; BcII, Bacillus cereus II MBL; SPM-1, São Paulo MBL-1; IMP-1, imipenemase MBL-1) and the Class B2 MBL CphA (carbapenem hydrolysing MBL from Aeromonas hydrophila).[22] The latter MBL (CphA) only utilises one active site Zn(II) ion in catalysis, whilst the others normally use two Zn(II) ions.
Figure S4: IC50 curves for NDM-1 inhibition time courses. Residual activities were calculated from the
(§4) initial rate of FC5 hydrolysis after incubation of the enzyme with the inhibitor for 10 minutes. […]

BcII = target: T2, BcII (Bacillus cereus, UniProt P04190); test: biochemical; conditions: for remaining activity at 100 µM: read-out: % Residual activity versus BcII
T2 construct: made in house
Description: as §1, §3
Figure S2: IC50 curves for BcII inhibition time courses. Residual activities were calculated from the initial
rate of FC5 hydrolysis after incubation of the enzyme with the inhibitor for 10 minutes. […]

IMP-1 = target: T3, IMP-1 (Serratia marcescens, UniProt P52699); test: IMP-1 inhibition, fluorogenic cephalosporin (FC5) hydrolysis; type: biochemical; conditions: for remaining activity at 100 µM: read-out: % Residual activity versus IMP-1
T3 construct: made in house
Description: as §1, §3
Figure S3: IC50 curves for IMP-1 inhibition time courses. Residual activities were calculated from the
initial rate of FC5 hydrolysis after incubation of the enzyme with the inhibitor for 10 minutes.

VIM-2 = target: T4, VIM-2 (Escherichia coli, UniProt Q5U7L7); test: biochemical; conditions: for remaining activity at 100 µM: read-out: % Residual activity versus VIM-2
T4 construct: made in house
Description: as §1, §2
Figure S6: IC50 curves for VIM-2 inhibition time courses. Residual activities were calculated from the
as §4

SPM-1 = SPM-1 (Pseudomonas aeruginosa, UniProt Q8G9Q0); test: SPM-1 inhibition, fluorogenic cephalosporin (FC5) hydrolysis; type: biochemical; conditions: for remaining activity at 100 µM: read-out: % Residual activity versus SPM-1
Description: as §1, §3
Figure S5: IC50 curves for SPM-1 inhibition time courses. Residual activities were calculated from the
as §4

CphA = target: T5, CphA (Aeromonas hydrophila, UniProt P26918); test: CphA (subclass B2 MBL) inhibition; type: biochemical
T5 construct: made in house
Description: as §1, §2

[2] = enethiols 6 assayed as sodium salts, 10 min incubation, read-out: IC50 NDM-1
[3] = enethiols 6 assayed as sodium salts, 10 min incubation, read-out: IC50 BcII (converted)
[4] = enethiols 6 assayed as sodium salts, 10 min incubation, read-out: IC50 IMP-1 (converted)
[5] = enethiols 6 assayed as sodium salts, 10 min incubation, read-out: IC50 VIM-2 (converted)
[6] = enethiols 6 assayed as sodium salts, 10 min incubation, read-out: IC50 SPM-1 (converted)
[7] = lower end of the range, read-out: IC50 values from (lowest across the MBL panel)

T5 sequence (P26918 28-254): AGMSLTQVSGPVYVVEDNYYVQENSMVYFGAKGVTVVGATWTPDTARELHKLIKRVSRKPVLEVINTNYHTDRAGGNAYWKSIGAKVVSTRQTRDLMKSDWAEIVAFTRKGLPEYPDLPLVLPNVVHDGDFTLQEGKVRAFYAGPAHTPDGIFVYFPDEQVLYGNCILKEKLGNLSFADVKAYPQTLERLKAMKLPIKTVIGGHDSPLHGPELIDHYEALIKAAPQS
T1 sequence (C7C422 29-270, looked up, species assumed): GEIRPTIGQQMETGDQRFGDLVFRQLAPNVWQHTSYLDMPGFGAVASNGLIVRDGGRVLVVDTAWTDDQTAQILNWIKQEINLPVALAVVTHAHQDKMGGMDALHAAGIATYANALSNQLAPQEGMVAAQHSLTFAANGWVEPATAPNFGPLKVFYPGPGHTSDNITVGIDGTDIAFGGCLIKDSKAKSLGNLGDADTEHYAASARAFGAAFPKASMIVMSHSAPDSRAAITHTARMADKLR
Chain of SPM-1 (Q8G9Q0 entry or part of it): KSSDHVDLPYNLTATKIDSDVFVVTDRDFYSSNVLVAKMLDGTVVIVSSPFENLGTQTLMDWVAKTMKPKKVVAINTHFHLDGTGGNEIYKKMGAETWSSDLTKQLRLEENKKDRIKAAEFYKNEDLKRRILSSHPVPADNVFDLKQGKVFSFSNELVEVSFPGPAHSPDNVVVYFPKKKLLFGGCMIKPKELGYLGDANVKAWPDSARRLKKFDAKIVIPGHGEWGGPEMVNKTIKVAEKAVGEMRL
T2 sequence (P04190 31-257): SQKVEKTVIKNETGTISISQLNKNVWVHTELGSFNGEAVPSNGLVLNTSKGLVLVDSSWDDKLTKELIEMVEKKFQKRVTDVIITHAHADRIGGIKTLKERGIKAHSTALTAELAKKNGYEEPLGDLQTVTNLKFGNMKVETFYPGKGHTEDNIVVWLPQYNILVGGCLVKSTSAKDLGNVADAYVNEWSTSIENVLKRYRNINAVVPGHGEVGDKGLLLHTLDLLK
T3 sequence (P52699 19-246, looked up, species assumed): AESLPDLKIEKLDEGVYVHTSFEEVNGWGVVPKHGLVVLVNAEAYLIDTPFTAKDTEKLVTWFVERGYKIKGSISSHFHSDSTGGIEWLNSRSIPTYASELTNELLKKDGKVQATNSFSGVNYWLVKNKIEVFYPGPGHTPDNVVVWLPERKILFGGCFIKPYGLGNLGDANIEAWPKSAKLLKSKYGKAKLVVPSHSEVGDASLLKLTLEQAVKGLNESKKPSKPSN

Structure (SMILES) | IC50 (NDM-1; [2]) [µM] | IC50 (BcII; [3]) [µM] | IC50 (IMP-1; [4]) [µM] | IC50 (VIM-2; [5]) [µM] | IC50 (SPM-1; [6]) [µM] | other results
O=C(O)/C(O)=C/c1ccc(F)cc1 [Compound 17] |  |  |  |  |  | MBL inhibition, result in words [1]: near inactive; remaining activity at 100 µM (NDM-1; at 100 µM): 97 ± 4%; remaining activity at 100 µM (BcII; at 100 µM): 90 ± 3%; remaining activity at 100 µM (IMP-1; at 100 µM): 100%; remaining activity at 100 µM (VIM-2; at 100 µM): 100%; remaining activity at 100 µM (SPM-1; at 100 µM): 93 ± 2%
CN1CCN(NC(=O)CN2C(=O)/C(=C/c3c(Cl)cccc3Cl)SC2=S)CC1 [Compound 5m] | 28.4 | 0.2 | 0.2 | 0.3 | 0.2 | IC50 (CphA): > 50 µM
O=C(O)C(S)c1ccccc1 (centres unmarked) [Compound 13a] |  |  |  |  |  | IC50 (NDM-1): 12.9 ± 1 µM; IC50 (CphA; Table 2, read-out: IC50 versus CphA): 71 ± 1 µM; IC50 (BcII; read-out: IC50 versus BcII): 0.1 µM; IC50 (IMP-1): 0.07 ± 0.003 µM; IC50 (VIM-2): 0.04 ± 0.001 µM; IC50 (SPM-1; Table 2, read-out: IC50 versus SPM-1): 0.05 ± 0.001 µM
CC1=N/C(=C\c2ccc(F)cc2)C(=O)O1 [Compound 16] |  |  |  |  |  | MBL inhibition, result in words [1]: near inactive; remaining activity at 100 µM (NDM-1; at 100 µM): 97 ± 2%; remaining activity at 100 µM (BcII; at 100 µM): 92 ± 2%; remaining activity at 100 µM (IMP-1; at 100 µM): 100%; remaining activity at 100 µM (VIM-2; at 100 µM): 100%; remaining activity at 100 µM (SPM-1; at 100 µM): 87 ± 1%
CN1CCN(NC(=O)CN2C(=O)/C(=C/c3c(F)ccc(F)c3F)SC2=S)CC1 [Compound 5k] | 40.1 | 3.5 | 1.6 | 2.6 | 1.5 | IC50 ([1]; SPM-1, IMP-1, BcII, VIM-2, read-out: IC50 values for all the tested B1 subclass MBLs, with the exception of NDM-1): < 3.5 µM
O=C(O)/C(S)=C/c1c(F)cccc1F [Compound 6p] | 21.5 | 0.1 | 0.2 | 0.2 | 0.06 | IC50 [1, 7]: 0.06 µM
Cc1cccc(C)c1/C=C(\S)C(=O)O [Compound 6q] | 4.9 | 0.2 | 0.02 | 0.07 | 0.02 | IC50 [1, 7]: 0.02 µM; IC50 ([1]; upper end of the range, read-out: IC50 values to (highest across the MBL panel)): 4.9 µM
O=C(O)/C(S)=C/c1cccc(Cl)c1Cl [Compound 6n] | 46.5 | 1 | 1 | 1.3 | 0.2 | IC50 [1, 7]: 0.2 µM
O=C(O)/C(S)=C/c1c(Cl)ccc(Cl)c1Cl [ML302F, reference compound] | 2.4 | 0.08 | 0.02 | 0.04 | 0.02 | IC50 (CphA; read-out: IC50 CphA): 0.2 ± 0.004 µM
O=C(O)/C(S)=C/c1cc(Cl)ccc1Cl [Compound 6o] | 45.3 | 1.6 | 4.7 | 1.5 | 0.8 | IC50 [1, 7]: 0.8 µM
O=P(O)(O)C(O)c1ccc(Br)cc1F (centres unmarked) [Compound 22] |  |  |  |  |  | MBL inhibition, result in words [1]: inactive; remaining activity at 100 µM (NDM-1): 100%; remaining activity at 100 µM (BcII): 98 ± 2%; remaining activity at 100 µM (IMP-1): 100%; remaining activity at 100 µM (VIM-2): 100%; remaining activity at 100 µM (SPM-1): 92 ± 5%
O=P(O)(O)C(S)c1ccc(Br)cc1F (centres unmarked) [Compound 26] |  |  |  |  |  | MBL inhibition, result in words [1]: inactive; remaining activity at 100 µM (NDM-1): 96 ± 3%; remaining activity at 100 µM (BcII): 100%; remaining activity at 100 µM (IMP-1): 100%; remaining activity at 100 µM (VIM-2): 100%; remaining activity at 100 µM (SPM-1): 95 ± 6%
CN1CCN(NC(=O)CN2C(=O)/C(=C/c3cccc(Cl)c3Cl)SC2=S)CC1 [Compound 5n] | 32.8 | 1.1 | 0.6 | 39.5 | 0.3 | 
CN1CCN(NC(=O)CN2C(=O)/C(=C/c3ccccc3Br)SC2=S)CC1 [Compound 5h] | > 50 | 14.6 | 8.3 | 11.4 | 8.1 | 
O=C(O)CN1C(=O)/C(=C/c2c(F)ccc(F)c2F)SC1=S [Compound 3k] | > 50 | 27 ± 2.2 | 46.5 ± 0.7 | 47.6 ± 0.4 | 8.8 ± 0.3 | 
COc1ccc(/C=C(\S)C(=O)O)cc1 [Compound 6e] | 8.2 | 2.4 | 0.8 | 0.4 | 0.6 | 
O=C(O)/C(S)=C/c1csc2ccccc12 [Compound 6L] | 11.1 | 3.1 | 0.7 | 0.5 | 0.4 | 
